# Measured values as given in PubChem BioAssay AID210 (DTP/NCI, 2004).
# “And” between values parts separate entries of the source, which are not always exact repeats. Identical values can stand only once. Inconclusive results and toxic doses are left out.
# System: CD2F1 mice, ip Colon 26 adenocarcinoma, median survival T/C
# Test: NCI In Vivo Anticancer Drug Screen. Data for tumor model Colon 26 Adenocarcinoma (intraperitoneal) in CD2F1 (CDF1) mice
# Conditions: endpoint: median survival time, higher = longer survival
# Method: The antitumor activity of compounds was measured in mice bearing transplantable tumors. Survival or tumor size were measured and the results are expressed as the measurement made in the treated group (T) divided by the measurement made in the vehicle treated control group (C). The tumor model used in this assay is Colon 26 Adenocarcinoma (intraperitoneal) in CD2F1 (CDF1) mice
# [1] = dose: 25.0 mg/kg/injection, schedule: Q04DX003 (ip), vehicle: Klucel (hydroxypropylcellulose) (HPC)
# [2] = dose: 50.0 mg/kg/injection, schedule: Q04DX003 (ip), vehicle: Klucel (hydroxypropylcellulose) (HPC)
# [3] = dose: 100.0 mg/kg/injection, schedule: Q04DX003 (ip), vehicle: Klucel (hydroxypropylcellulose) (HPC)
# [4] = dose: 200.0 mg/kg/injection, schedule: Q04DX003 (ip), vehicle: Klucel (hydroxypropylcellulose) (HPC)
# [5] = dose: 400.0 mg/kg/injection, schedule: Q04DX003 (ip), vehicle: Klucel (hydroxypropylcellulose) (HPC)
compound,measurement,setting,value
c1cc[c]([Sn][c]2ccccc2)cc1,T/C,"dose: 0.62 mg/kg/injection, schedule: Q04DX003 (ip), vehicle: saline with Tween-80",97 % of control
same,T/C,"dose: 0.62 mg/kg/injection, schedule: Q04DX003 (ip), vehicle: saline",105 % of control
same,T/C,"dose: 1.25 mg/kg/injection, schedule: Q04DX003 (ip), vehicle: saline with Tween-80",92 % of control
same,T/C,"dose: 1.25 mg/kg/injection, schedule: Q04DX003 (ip), vehicle: saline",112 % of control
same,T/C,"dose: 2.5 mg/kg/injection, schedule: Q04DX003 (ip), vehicle: saline with Tween-80",100 % of control
same,T/C,"dose: 2.5 mg/kg/injection, schedule: Q04DX003 (ip), vehicle: saline",107 % of control
same,T/C,"dose: 5.0 mg/kg/injection, schedule: Q04DX003 (ip), vehicle: saline with Tween-80",108 % of control
same,T/C,"dose: 5.0 mg/kg/injection, schedule: Q04DX003 (ip), vehicle: saline",117 % of control
same,T/C,"dose: 10.0 mg/kg/injection, schedule: Q04DX003 (ip), vehicle: saline",86 % of control
O=P1(NCCCl)OCCCN1CCCl (configuration not stated),T/C,"dose: 12.5 mg/kg/injection, schedule: Q04DX003 (ip), vehicle: water",106 % of control
same,T/C,"dose: 25.0 mg/kg/injection, schedule: Q04DX003 (ip), vehicle: water",113 % of control
same,T/C,"dose: 200.0 mg/kg/injection, schedule: Q04DX003 (ip), vehicle: water",188 % of control
CCCCCC(=O)O[C@]1(C(C)=O)CC[C@H]2[C@@H]3CCC4=CC(=O)CC[C@]4(C)[C@H]3CC[C@@]21C,T/C,[1],101 % of control
same,T/C,[2],106 % of control
same,T/C,[3],100 % of control
same,T/C,[4],106 % of control
same,T/C,[5],103 % of control
COc1ccc2c(c1)CCC(c1ccccc1)=C2c1ccc(OCCN2CCCC2)cc1,T/C,"dose: 6.25 mg/kg/injection, schedule: Q01DX009 (ip), vehicle: saline",115 % of control
same,T/C,"dose: 12.5 mg/kg/injection, schedule: Q01DX009 (ip), vehicle: saline",111 % of control
same,T/C,"dose: 25.0 mg/kg/injection, schedule: Q01DX009 (ip), vehicle: saline",112 % of control
N=c1ccn2c(n1)OC1C(O)C(CO)OC12 (configuration not stated),T/C,"dose: 111.0 mg/kg/injection, schedule: Q01DX009 (ip), vehicle: saline with Tween-80",110 % of control
same,T/C,"dose: 167.0 mg/kg/injection, schedule: Q01DX009 (ip), vehicle: saline with Tween-80",115 % of control
same,T/C,"dose: 250.0 mg/kg/injection, schedule: Q01DX009 (ip), vehicle: saline with Tween-80",121 % of control
COC1C(O)C(C)OC(OC2C(Oc3cccc4c(O)c5c(=O)oc6ccc(C)c7c(=O)oc(c34)c5c67)OC(C)C(O)C2O)C1O (configuration not stated),T/C,"dose: 12.5 mg/kg/injection, schedule: Q04DX002 (ip), vehicle: Klucel (hydroxypropylcellulose) (HPC)",105 % of control and 112 % of control
same,T/C,"dose: 12.5 mg/kg/injection, schedule: Q04DX003 (ip), vehicle: Klucel (hydroxypropylcellulose) (HPC)",106 % of control
same,T/C,"dose: 25.0 mg/kg/injection, schedule: Q04DX002 (ip), vehicle: Klucel (hydroxypropylcellulose) (HPC)",107 % of control and 118 % of control
same,T/C,[1],116 % of control
same,T/C,"dose: 50.0 mg/kg/injection, schedule: Q04DX002 (ip), vehicle: Klucel (hydroxypropylcellulose) (HPC)",106 % of control
same,T/C,[2],106 % of control
same,T/C,"dose: 100.0 mg/kg/injection, schedule: Q04DX002 (ip), vehicle: Klucel (hydroxypropylcellulose) (HPC)",107 % of control and 100 % of control
same,T/C,[3],110 % of control
O=c1n(CC2CO2)c(=O)n(CC2CO2)c(=O)n1CC1CO1 (configuration not stated),T/C,"dose: 25.0 mg/kg/injection, schedule: Q04DX003 (ip), vehicle: saline",237 % of control
same,T/C,"dose: 40.0 mg/kg/injection, schedule: Q04DX003 (ip), vehicle: saline",292 % of control
same,T/C,"dose: 50.0 mg/kg/injection, schedule: Q04DX003 (ip), vehicle: saline",237 % of control and 292 % of control
same,T/C,"dose: 60.0 mg/kg/injection, schedule: Q04DX003 (ip), vehicle: saline",292 % of control
same,T/C,"dose: 100.0 mg/kg/injection, schedule: Q04DX003 (ip), vehicle: saline",193 % of control and 237 % of control
same,T/C,"dose: 200.0 mg/kg/injection, schedule: Q04DX003 (ip), vehicle: saline",237 % of control and 292 % of control
same,T/C,"dose: 300.0 mg/kg/injection, schedule: Q04DX003 (ip), vehicle: saline",292 % of control
same,T/C,"dose: 400.0 mg/kg/injection, schedule: Q04DX003 (ip), vehicle: saline",213 % of control and 292 % of control
O=C(O)CC(NC(=O)CP(=O)(O)O)C(=O)O (configuration not stated),T/C,"dose: 108.0 mg/kg/injection, schedule: Q04DX003 (ip), vehicle: saline",119 % of control
same,T/C,"dose: 180.0 mg/kg/injection, schedule: Q04DX003 (ip), vehicle: saline",115 % of control
same,T/C,"dose: 180.0 mg/kg/injection, schedule: Q04DX003 (ip), vehicle: water",161 % of control
same,T/C,"dose: 300.0 mg/kg/injection, schedule: Q04DX003 (ip), vehicle: water",106 % of control
same,T/C,"dose: 833.0 mg/kg/injection, schedule: Q04DX003 (ip), vehicle: saline",187 % of control
CN(C)CCNc1ccc(O)c2c1C(=O)c1ccccc1C2=O,T/C,"dose: 10.0 mg/kg/injection, schedule: Q01DX009 (ip), vehicle: acid diluted with saline",121 % of control
same,T/C,"dose: 20.0 mg/kg/injection, schedule: Q01DX009 (ip), vehicle: acid diluted with saline",104 % of control and 115 % of control
same,T/C,"dose: 40.0 mg/kg/injection, schedule: Q01DX009 (ip), vehicle: acid diluted with saline",103 % of control
same,T/C,"dose: 80.0 mg/kg/injection, schedule: Q01DX009 (ip), vehicle: acid diluted with saline",115 % of control and 120 % of control
O=c1oc2cc(N=Cc3ccccc3Cl)ccc2c2ccccc12,T/C,[2],100 % of control
same,T/C,[3],97 % of control
same,T/C,[4],98 % of control
same,T/C,[5],98 % of control
CC1CCC(NC(=O)N(CCCl)N=O)CC1 (configuration not stated),T/C,"dose: 5.0 mg/kg/injection, schedule: Q04DX003 (ip), vehicle: Klucel (hydroxypropylcellulose) (HPC)",250 % of control
same,T/C,"dose: 6.7 mg/kg/injection, schedule: Q04DX002 (ip), vehicle: saline with Tween-80",106 % of control
same,T/C,"dose: 10.0 mg/kg/injection, schedule: Q04DX002 (ip), vehicle: saline with Tween-80",108 % of control
same,T/C,"dose: 10.0 mg/kg/injection, schedule: Q04DX003 (ip), vehicle: Klucel (hydroxypropylcellulose) (HPC)",305 % of control
same,T/C,"dose: 12.0 mg/kg/injection, schedule: Q07DX003 (ip), vehicle: saline with Tween-80",189 % of control and 219 % of control
same,T/C,"dose: 15.0 mg/kg/injection, schedule: Q04DX002 (ip), vehicle: saline with Tween-80",123 % of control
same,T/C,"dose: 17.0 mg/kg/injection, schedule: Q07DX003 (ip), vehicle: saline with Tween-80",262 % of control and 288 % of control
same,T/C,"dose: 20.0 mg/kg/injection, schedule: Q01DX001 (ip), vehicle: other",217 % of control
same,T/C,"dose: 20.0 mg/kg/injection, schedule: Q04DX003 (ip), vehicle: Klucel (hydroxypropylcellulose) (HPC)",437 % of control
same,T/C,"dose: 24.0 mg/kg/injection, schedule: Q07DX003 (ip), vehicle: saline with Tween-80",288 % of control and 354 % of control
same,T/C,"dose: 30.0 mg/kg/injection, schedule: Q01DX001 (ip), vehicle: other",217 % of control
same,T/C,"dose: 30.0 mg/kg/injection, schedule: Q01DX005 (ip), vehicle: saline with Tween-80",352 % of control
same,T/C,"dose: 40.0 mg/kg/injection, schedule: Q01DX005 (ip), vehicle: saline with Tween-80",329 % of control
same,T/C,"dose: 55.0 mg/kg/injection, schedule: Q01DX005 (ip), vehicle: saline with Tween-80",172 % of control
O=C1c2ccccc2C(=O)c2c(NCCN3CCNCC3)ccc(NCCN3CCNCC3)c21,T/C,"dose: 4.0 mg/kg/injection, schedule: Q01DX009 (ip), vehicle: acid diluted with saline",106 % of control
same,T/C,"dose: 8.0 mg/kg/injection, schedule: Q01DX009 (ip), vehicle: acid diluted with saline",114 % of control
same,T/C,"dose: 16.0 mg/kg/injection, schedule: Q01DX009 (ip), vehicle: acid diluted with saline",114 % of control
COc1cccc2c1C(=O)c1c(O)c3c(c(O)c1C2=O)C[C@@](O)(C(C)=O)C[C@@H]3OC1CC(N(C)C)C(O)C(C)O1 (some centres not stated),T/C,"dose: 4.5 mg/kg/injection, schedule: Q07DX002 (iv), vehicle: saline",109 % of control
same,T/C,"dose: 5.4 mg/kg/injection, schedule: Q04DX003 (ip), vehicle: water",119 % of control
same,T/C,"dose: 7.0 mg/kg/injection, schedule: Q07DX002 (iv), vehicle: saline",114 % of control
same,T/C,"dose: 11.0 mg/kg/injection, schedule: Q07DX002 (iv), vehicle: saline",113 % of control
same,T/C,"dose: 15.0 mg/kg/injection, schedule: Q04DX003 (ip), vehicle: water",88 % of control
same,T/C,"dose: 18.0 mg/kg/injection, schedule: Q07DX002 (iv), vehicle: saline",109 % of control
same,T/C,"dose: 27.0 mg/kg/injection, schedule: Q07DX002 (iv), vehicle: saline",108 % of control
same,T/C,"dose: 41.0 mg/kg/injection, schedule: Q07DX002 (iv), vehicle: saline",94 % of control
C[C@]12C=CC(=O)C=C1CC[C@@H]1[C@@H]2C(=O)C[C@@]2(C)[C@H]1CC[C@]2(O)C(=O)CO,T/C,[1],105 % of control
same,T/C,[2],100 % of control
same,T/C,[3],100 % of control
same,T/C,[4],96 % of control
same,T/C,[5],98 % of control
